What was measured:
MeaB = molecular target: T1, MeaB (Methylorubrum extorquens, UniProt C5AP93); test: isothermal titration calorimetry; type: binding
T1 sequence (C5AP93 1-329): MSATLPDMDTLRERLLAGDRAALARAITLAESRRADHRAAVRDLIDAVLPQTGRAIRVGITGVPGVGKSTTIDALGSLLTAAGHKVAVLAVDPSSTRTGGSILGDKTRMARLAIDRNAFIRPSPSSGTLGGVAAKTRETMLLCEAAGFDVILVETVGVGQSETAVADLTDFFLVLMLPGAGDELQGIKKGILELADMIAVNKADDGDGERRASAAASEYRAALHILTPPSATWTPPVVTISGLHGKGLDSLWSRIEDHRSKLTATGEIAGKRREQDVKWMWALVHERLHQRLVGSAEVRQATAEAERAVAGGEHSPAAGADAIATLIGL

crystal structure = molecular target: the molecule itself; test: crystal structure

Row | Molecule | Kd (MeaB) [nM] | binding result (crystal structure)
1 | Nc1nc2c(ncn2[C@@H]2O[C@H](COP(=O)(O)OP(=O)(O)NP(=O)(O)O)[C@@H](O)[C@H]2O)c(=O)[nH]1 [GMPPNP] | 900 ± 200 | –
2 | Nc1nc2c(ncn2[C@@H]2O[C@H](COP(=O)(O)OP(=O)(O)O)[C@@H](O)[C@H]2O)c(=O)[nH]1 [GDP] | 1400 ± 100 | –
3 | MeaB (Methylobacterium extorquens AM1), wild type (natural protein) MSATLPDMDTLRERLLAGDRAALARAITLAESRRADHRAAVRDLIDAVLPQTGRAIRVGITGVPGVGKSTTIDALGSLLTAAGHKVAVLAVDPSSTRTGGSILGDKTRMARLAIDRNAFIRPSPSSGTLGGVAAKTRETMLLCEAAGFDVILVETVGVGQSETAVADLTDFFLVLMLPGAGDELQGIKKGILELADMIAVNKADDGDGERRASAAASEYRAALHILTPPSATWTPPVVTISGLHGKGLDSLWSRIEDHRSKLTATGEIAGKRREQDVKWMWALVHERLHQRLVGSAEVRQATAEAERAVAGGEHSPAAGADAIATLIGL | – | binds

Reference: publication PMC3752380 (Nature chemical biology, 2013)
